Tests used:
Src-Y416 = assay: Intracellular phosphorylation: Src-Y416 autophosphorylation; assay type: cell-based; settings: HT29 and c-Src527F/NIH-3T3 cells; 0.2×, 1×, 5×, 25× GI50
Protocol: (§1) HT29 (colon cancer) and c-Src527F/NIH-3T3 (Src transformed) cell lines were treated with KX2-391 or with AstraZeneca's ATP competitive Src inhibitor AZ28. AZ28 serves as a positive comparator to show what a validated Src inhibitor should do in these assays. After treatment with compound, cells were lysed, subjected to PAGE and probed with a battery of antibodies. […] In addition, off-target protein phosphorylation was also investigated. Further, induction of apoptosis was evaluated via Caspase 3 cleavage. Multiple doses of each compound were tested because the trends in response to increasing drug concentration are the most reliable indicator of activity.
(§2) The same range of multiples of the GI50 for AZ28 in these two cell lines was run as a comparison.

Src = Src (Homo sapiens, UniProt P12931); assay: Isolated kinase assay and titration, Src; assay type: biochemical; settings: titration data
Excerpt: (§3) Table XV illustrates percent activity of isolated kinases in the presence of the AstraZeneca ATP-competitive inhibitor (KX-328, AZ-28) or KX2-391 relative to control (untreated) isolated kinases.

PI3 kinase = assay: Isolated kinases, percent activity relative to control (Table XV), PI3 kinase; assay type: biochemical; settings: @ 10 μM
Excerpt: as §3

IGF-1R(h) = IGF-1R(h) (Homo sapiens, UniProt P08069); assay: Isolated kinases, percent activity relative to control (Table XV), IGF-1R; assay type: biochemical; settings: @ 10 μM
Excerpt: as §3

Shc Y239/240 = assay: Intracellular phosphorylation: Shc Y239/240; assay type: cell-based; settings: c-Src/NIH-3T3 and HT-29 cells
Protocol: as §1, §2

CHK1(h) = CHK1(h) (Homo sapiens, UniProt O14757); assay: Isolated kinases, percent activity relative to control (Table XV), CHK1; assay type: biochemical; settings: @ 10 μM
Excerpt: as §3

IR(h) = IR(h) (Homo sapiens, UniProt P06213); assay: Isolated kinases, percent activity relative to control (Table XV), IR; assay type: biochemical; settings: @ 10 μM
Excerpt: as §3

ZAP-70(h) = ZAP-70(h) (Homo sapiens, UniProt P43403); assay: Isolated kinases, percent activity relative to control (Table XV), ZAP-70; assay type: biochemical; settings: @ 10 μM
Excerpt: as §3

EGFR tyrosine kinase = EGFR tyrosine kinase autophosphorylation; assay type: cell-based; settings: c-Src/NIH-3T3 and HT-29 cells
Protocol: as §1
This site is not a direct Src phosphorylation site.

Fyn = Fyn (Homo sapiens, UniProt P06241); assay: Isolated kinase assay, Fyn; assay type: biochemical
Fyn, sequence (P06241 whole entry): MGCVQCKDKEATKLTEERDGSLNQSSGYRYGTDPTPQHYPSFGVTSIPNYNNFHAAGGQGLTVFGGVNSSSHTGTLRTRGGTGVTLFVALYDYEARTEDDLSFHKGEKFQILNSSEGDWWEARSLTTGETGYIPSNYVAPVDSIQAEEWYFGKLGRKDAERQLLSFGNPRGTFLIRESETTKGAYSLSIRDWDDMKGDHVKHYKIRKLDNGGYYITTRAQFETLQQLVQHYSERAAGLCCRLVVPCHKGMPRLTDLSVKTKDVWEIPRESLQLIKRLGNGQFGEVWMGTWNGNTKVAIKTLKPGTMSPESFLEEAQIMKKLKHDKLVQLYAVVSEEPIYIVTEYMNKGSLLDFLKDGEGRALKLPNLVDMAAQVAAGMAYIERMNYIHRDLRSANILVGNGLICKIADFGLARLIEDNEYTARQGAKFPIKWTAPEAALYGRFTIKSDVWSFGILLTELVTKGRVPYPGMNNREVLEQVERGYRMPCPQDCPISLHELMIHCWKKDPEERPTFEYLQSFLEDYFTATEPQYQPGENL
Excerpt: as §3

Paxillin Y-31 = assay: Intracellular phosphorylation: Paxillin Y-31; assay type: cell-based; settings: c-Src/NIH-3T3 cells
Protocol: as §1, §2
Note: paxillin Y-31 was not detected in HT29 cells with or without added drug.

[1] = test system: c-Src/NIH-3T3 engineered cell line; assay: Src-driven cell growth, c-Src/NIH-3T3; assay type: cell-based
EGFRTK = EGFRTK (Homo sapiens, UniProt P00533); assay: Isolated kinase assay, EGFRTK; assay type: biochemical
EGFRTK, sequence (P00533 25-1210): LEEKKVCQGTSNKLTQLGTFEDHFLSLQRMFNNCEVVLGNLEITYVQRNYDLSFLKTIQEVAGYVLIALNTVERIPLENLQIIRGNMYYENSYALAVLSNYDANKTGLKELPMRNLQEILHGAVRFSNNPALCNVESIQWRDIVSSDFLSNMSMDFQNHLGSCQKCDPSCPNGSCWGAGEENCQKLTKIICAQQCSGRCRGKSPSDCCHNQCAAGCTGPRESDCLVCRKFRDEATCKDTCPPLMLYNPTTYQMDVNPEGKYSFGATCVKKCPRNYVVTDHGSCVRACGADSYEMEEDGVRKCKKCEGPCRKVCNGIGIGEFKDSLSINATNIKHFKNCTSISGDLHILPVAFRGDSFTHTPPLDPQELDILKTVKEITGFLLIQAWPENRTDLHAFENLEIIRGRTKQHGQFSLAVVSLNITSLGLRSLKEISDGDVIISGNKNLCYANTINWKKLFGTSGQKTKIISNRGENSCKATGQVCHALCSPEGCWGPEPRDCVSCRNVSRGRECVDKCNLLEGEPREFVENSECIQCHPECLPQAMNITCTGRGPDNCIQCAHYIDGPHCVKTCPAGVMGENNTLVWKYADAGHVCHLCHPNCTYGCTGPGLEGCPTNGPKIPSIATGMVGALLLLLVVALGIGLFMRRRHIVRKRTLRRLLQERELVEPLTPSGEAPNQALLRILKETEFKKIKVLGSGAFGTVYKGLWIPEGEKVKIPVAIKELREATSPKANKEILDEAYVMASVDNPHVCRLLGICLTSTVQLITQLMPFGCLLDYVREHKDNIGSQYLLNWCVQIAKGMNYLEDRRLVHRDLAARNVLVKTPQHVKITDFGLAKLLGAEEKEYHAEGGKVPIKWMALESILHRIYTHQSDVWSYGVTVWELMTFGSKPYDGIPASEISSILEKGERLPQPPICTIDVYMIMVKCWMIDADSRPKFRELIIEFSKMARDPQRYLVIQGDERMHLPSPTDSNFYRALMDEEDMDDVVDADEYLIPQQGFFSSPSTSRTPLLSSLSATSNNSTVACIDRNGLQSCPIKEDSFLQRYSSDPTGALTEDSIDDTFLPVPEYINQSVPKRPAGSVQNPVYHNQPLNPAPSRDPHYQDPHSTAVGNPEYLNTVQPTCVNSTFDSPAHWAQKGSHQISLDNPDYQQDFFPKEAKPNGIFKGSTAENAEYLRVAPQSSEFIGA
Excerpt: as §3

FGFR2(h) = FGFR2(h) (Homo sapiens, UniProt P21802); assay: Isolated kinases, percent activity relative to control (Table XV), FGFR2; assay type: biochemical; settings: @ 10 μM
Excerpt: as §3

Abl = Abl (Homo sapiens, UniProt P00519); assay: Isolated kinase assay, Abl; assay type: biochemical
Abl, sequence (P00519 whole entry): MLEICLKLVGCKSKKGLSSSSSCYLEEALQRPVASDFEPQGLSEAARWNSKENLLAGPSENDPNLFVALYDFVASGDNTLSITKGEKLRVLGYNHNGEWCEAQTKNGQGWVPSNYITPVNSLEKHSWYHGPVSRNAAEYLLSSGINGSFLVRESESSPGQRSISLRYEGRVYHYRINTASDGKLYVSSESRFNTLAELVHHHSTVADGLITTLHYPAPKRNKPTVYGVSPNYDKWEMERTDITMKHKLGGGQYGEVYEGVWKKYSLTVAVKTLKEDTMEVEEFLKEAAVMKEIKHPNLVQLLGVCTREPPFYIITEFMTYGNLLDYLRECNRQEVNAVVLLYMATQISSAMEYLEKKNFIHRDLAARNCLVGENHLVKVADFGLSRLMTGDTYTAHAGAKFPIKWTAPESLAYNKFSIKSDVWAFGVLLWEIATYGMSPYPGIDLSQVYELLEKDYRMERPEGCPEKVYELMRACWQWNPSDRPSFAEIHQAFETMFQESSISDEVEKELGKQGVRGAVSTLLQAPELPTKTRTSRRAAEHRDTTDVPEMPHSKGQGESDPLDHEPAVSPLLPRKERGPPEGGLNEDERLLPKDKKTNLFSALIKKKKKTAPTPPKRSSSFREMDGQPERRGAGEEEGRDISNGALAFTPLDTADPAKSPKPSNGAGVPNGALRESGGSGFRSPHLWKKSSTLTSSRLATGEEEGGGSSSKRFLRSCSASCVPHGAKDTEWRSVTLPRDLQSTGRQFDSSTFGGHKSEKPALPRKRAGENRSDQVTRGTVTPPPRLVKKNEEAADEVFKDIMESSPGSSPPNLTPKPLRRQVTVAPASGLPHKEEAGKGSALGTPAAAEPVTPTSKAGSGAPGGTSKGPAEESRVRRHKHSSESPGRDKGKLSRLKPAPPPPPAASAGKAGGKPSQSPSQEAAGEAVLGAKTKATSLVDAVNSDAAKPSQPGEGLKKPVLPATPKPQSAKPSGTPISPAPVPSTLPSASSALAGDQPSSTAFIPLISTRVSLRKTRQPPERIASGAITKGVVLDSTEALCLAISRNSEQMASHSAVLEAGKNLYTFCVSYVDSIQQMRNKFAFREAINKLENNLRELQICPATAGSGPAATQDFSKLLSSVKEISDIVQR
Excerpt: as §3

[2] = test system: NCI human colon cancer cell line HT29; assay: Cell growth, HT29; assay type: cell-based
Lyn = Lyn (Homo sapiens, UniProt P07948); assay: Isolated kinase assay, Lyn; assay type: biochemical
Lyn, sequence (P07948 whole entry): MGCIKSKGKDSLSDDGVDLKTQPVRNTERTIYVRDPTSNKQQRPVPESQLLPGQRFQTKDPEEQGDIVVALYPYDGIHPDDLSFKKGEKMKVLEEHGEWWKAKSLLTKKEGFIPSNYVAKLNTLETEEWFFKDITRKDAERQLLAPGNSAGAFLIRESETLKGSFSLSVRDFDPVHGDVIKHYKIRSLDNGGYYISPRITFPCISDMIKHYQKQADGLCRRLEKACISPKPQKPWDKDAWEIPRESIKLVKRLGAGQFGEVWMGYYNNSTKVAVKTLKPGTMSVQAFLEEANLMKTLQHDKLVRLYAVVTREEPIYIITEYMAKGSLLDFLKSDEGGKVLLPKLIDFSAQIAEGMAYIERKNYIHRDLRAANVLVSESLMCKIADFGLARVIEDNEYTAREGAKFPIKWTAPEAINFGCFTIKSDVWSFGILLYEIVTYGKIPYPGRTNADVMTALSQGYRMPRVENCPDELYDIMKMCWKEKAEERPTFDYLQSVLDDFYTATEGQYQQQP
Excerpt: as §3

isolated kinases = assay: Isolated kinases panel, percent activity relative to control (Table XV); assay type: biochemical
Excerpt: as §3

Lck = Lck (Homo sapiens, UniProt P06239); assay: Isolated kinase assay, Lck; assay type: biochemical
Lck, sequence (P06239 whole entry): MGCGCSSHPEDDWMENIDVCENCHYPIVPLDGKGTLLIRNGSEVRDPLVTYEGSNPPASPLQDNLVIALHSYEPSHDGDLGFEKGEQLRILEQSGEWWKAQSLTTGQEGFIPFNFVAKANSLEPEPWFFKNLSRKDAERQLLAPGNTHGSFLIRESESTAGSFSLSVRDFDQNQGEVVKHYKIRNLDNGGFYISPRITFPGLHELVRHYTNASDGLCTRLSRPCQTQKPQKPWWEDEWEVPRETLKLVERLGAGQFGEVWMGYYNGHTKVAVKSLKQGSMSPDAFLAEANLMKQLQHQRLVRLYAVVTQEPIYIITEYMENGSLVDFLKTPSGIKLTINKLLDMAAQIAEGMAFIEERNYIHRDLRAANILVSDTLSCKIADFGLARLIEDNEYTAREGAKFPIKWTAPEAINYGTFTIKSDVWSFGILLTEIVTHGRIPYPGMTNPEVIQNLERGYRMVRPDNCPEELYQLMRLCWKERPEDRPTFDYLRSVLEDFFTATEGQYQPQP
Excerpt: as §3

PKCα(h) = PKCα(h) (Homo sapiens, UniProt P17252); assay: Isolated kinases, percent activity relative to control (Table XV), PKCα; assay type: biochemical; settings: @ 10 μM
Excerpt: as §3

Pyk2(h) = Pyk2(h) (Homo sapiens, UniProt Q14289); assay: Isolated kinases, percent activity relative to control (Table XV), Pyk2; assay type: biochemical; settings: @ 10 μM
Excerpt: as §3

Yes = Yes (Homo sapiens, UniProt P07947); assay: Isolated kinase assay, Yes; assay type: biochemical
Yes, sequence (P07947 whole entry): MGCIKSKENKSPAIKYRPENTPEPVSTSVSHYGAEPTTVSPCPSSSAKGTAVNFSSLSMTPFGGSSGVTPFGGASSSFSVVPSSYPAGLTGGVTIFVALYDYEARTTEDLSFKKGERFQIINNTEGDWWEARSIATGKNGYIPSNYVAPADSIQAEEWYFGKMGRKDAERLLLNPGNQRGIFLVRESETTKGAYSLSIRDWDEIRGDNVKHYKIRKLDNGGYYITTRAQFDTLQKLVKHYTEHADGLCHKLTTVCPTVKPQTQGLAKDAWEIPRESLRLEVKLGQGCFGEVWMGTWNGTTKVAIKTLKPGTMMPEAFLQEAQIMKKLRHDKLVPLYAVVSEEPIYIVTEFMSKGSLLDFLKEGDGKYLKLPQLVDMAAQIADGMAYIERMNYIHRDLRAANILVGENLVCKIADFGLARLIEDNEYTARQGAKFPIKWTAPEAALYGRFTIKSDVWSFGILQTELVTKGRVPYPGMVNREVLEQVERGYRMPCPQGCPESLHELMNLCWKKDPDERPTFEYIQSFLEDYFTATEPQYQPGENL
Excerpt: as §3

[3] = test system: PDGF receptor tyrosine kinase; assay: Isolated kinase assay, PDGF receptor tyrosine kinase; assay type: biochemical; settings: @ 10 μM
Excerpt: as §3

FAK Y397 = FAK Y397 autophosphorylation; assay type: cell-based; settings: c-Src527F/NIH3T3 cells
Protocol: as §1
FAK Y397 is mainly a FAK autophosphorylation site and only a poor Src transphorylation site.

MAPK2(h) = MAPK2(h) (Homo sapiens, UniProt P28482); assay: Isolated kinases, percent activity relative to control (Table XV), MAPK2; assay type: biochemical; settings: @ 10 μM
MAPK2(h), sequence (P28482 whole entry): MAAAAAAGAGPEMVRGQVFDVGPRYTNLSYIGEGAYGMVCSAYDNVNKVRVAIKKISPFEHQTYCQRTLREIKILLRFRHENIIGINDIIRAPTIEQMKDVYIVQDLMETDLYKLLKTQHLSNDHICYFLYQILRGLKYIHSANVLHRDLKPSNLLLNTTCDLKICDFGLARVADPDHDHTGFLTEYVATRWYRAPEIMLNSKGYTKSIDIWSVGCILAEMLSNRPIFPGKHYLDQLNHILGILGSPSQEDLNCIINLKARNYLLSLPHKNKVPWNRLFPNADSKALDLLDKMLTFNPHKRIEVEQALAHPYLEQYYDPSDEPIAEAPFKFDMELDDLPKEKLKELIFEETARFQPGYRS
Excerpt: as §3

FAK Tyr 925 = assay: Intracellular phosphorylation: FAK Tyr 925; assay type: cell-based; settings: c-Src/NIH-3T3 and HT-29 cells
Protocol: as §1, §2

Caspase-3 = assay: Induction of apoptosis via Caspase 3 cleavage; assay type: cell-based; settings: HT29 and c-Src527F/NIH-3T3 cells
Protocol: as §1
Cleavage of Caspase-3 is a good measure of induction of apoptosis.

total phosphotyrosine = assay: Total phosphotyrosine levels; assay type: cell-based; settings: HT29 and c-Src527F/NIH-3T3 cells
Protocol: as §1

[4] = test system: PDGF receptor tyrosine kinase Y572/574; assay: PDGF receptor autophosphorylation Y572/574; assay type: cell-based; settings: c-Src/NIH-3T3 cells
Protocol: as §1
PDGF receptor tyrosine kinase autophosphorylates on Y572/574. This is thought not to be a direct Src substrate in cells. […] PDGF receptor tyrosine kinase Y572/574 was not detected in HT29 cells with no drug added (as well as with drug added).

`O=C(Cc1ccc(-c2ccc(OCCN3CCOCC3)cc2)cn1)NCc1ccccc1` [KX2-391] was tested, and the Src-Y416 autophosphorylation (Src-Y416) was “expected dose response”, the IC50 (Src) was 46 µM and the “percent activity of isolated kinase relative to control, PI3 kinase” value (PI3 kinase) was 100%. The “percent activity of isolated kinase relative to control, IGF-1R(h)” value (IGF-1R(h)) was 101%, the “phosphorylation of Shc Y239/240” value (Shc Y239/240) was “inhibited Src trans-phosphorylation” and the “percent activity of isolated kinase relative to control, CHK1(h)” value (CHK1(h)) was 105%. For the same compound, the “percent activity of isolated kinase relative to control, IR(h)” value (IR(h)) was 112%, the “percent activity of isolated kinase relative to control, ZAP-70(h)” value (ZAP-70(h)) was 108% and the “EGFR tyrosine kinase autophosphorylation” value (EGFR tyrosine kinase) was “less active”. The “inhibition of isolated Fyn” value (Fyn) was “poor inhibition”, the “percent activity of isolated kinase relative to control, Fyn(h)” value (Fyn; @ 10 μM) was 85% and the “phosphorylation of Paxillin Y-31” value (Paxillin Y-31) was “inhibited Src trans-phosphorylation”. The GI50 [1] was 0.013 µM, the “inhibition of isolated EGFRTK” value (EGFRTK) was “poor inhibition” and the “percent activity of isolated kinase relative to control, EGFR(h)” value (EGFRTK; @ 10 μM) was 134%. For the same compound, the “percent activity of isolated kinase relative to control, FGFR2(h)” value (FGFR2(h)) was 94%, the “inhibition of isolated Abl” value (Abl) was “poor inhibition” and the “percent activity of isolated kinase relative to control, Ab1(h)” value (Abl; @ 10 μM) was 120%. For the same compound, the GI50 [2] was 0.023 µM, the “inhibition of isolated Lyn” value (Lyn) was “poor inhibition” and the “percent activity of isolated kinase relative to control, Lyn(h)” value (Lyn; @ 10 μM) was 113%. For the same compound, the “activity against isolated kinases” value (isolated kinases) was “weak activity against isolated kinases”, the “inhibition of isolated Lck” value (Lck) was “poor inhibition” and the “percent activity of isolated kinase relative to control, Lck(h)” value (Lck; @ 10 μM) was 109%. The “percent activity of isolated kinase relative to control, PKCα(h)” value (PKCα(h)) was 111%, the “percent activity of isolated kinase relative to control, Pyk2(h)” value (Pyk2(h)) was 97% and the “inhibition of isolated Yes” value (Yes) was “poor inhibition”. The “percent activity of isolated kinase relative to control, Yes(h)” value (Yes; @ 10 μM) was 92%, the “percent activity of isolated kinase relative to control, PDGFRβ(h)” value [3] was 110% and the “FAK autophosphorylation (Y397)” value (FAK Y397) was “no inhibition of FAK autophosphorylation”. For the same compound, the “percent activity of isolated kinase relative to control, MAPK2(h)” value (MAPK2(h)) was 112%, the “phosphorylation of FAK Tyr 925” value (FAK Tyr 925) was “inhibited Src trans-phosphorylation” and the “induction of apoptosis (Caspase-3 cleavage)” value (Caspase-3) was “very effective in inducing apoptosis”. For the same compound, the total phosphotyrosine levels (total phosphotyrosine) was “reduction in the total phosphotyrosine levels” and the PDGF receptor autophosphorylation [4] was “Some effect is seen”.

Reference: patent publication US7838542B2, “Bicyclic compositions and methods for modulating a kinase cascade” (Kinex Pharmaceuticals, LLC, priority 2006, dated 2010)
